We go through 45 compounds from patent publication US7829665B2 (priority 2005, dated 2010).

Like-named read-outs stand apart in the source and are kept apart here.

For this assay, the target named is T1, full-length NS3/NS4A-2 (HCV NS3 protease) (Hepatitis C virus genotype 1a, UniProt P27958).
T1 construct: Recombinant E. coli or Baculovirus full-length NS3 was diluted to 3.33 μM with assay buffer; made in house; host or cells: E. coli or baculovirus (BV) expression system
Description: NS3-NS4 protease assay / NS3 inhibition assay (RETS1 substrate, fluorescence kinetic read). It counts as biochemical. The following applies: read-out: NS3-NS4 IC50. In outline: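 Ki values come from IC50 fits corrected via Ki=IC50/(1+[S]/Km), with Km 2.03 μM for E. coli and 1.74 μM for baculovirus full-length NS3. Enzyme (2 or 3 nM NS3, respectively, complexed with NS4A-2) sat with compound, top concentration 50 microM, for 10 min at room temperature. Cleavage of RETS1 (8 μM working solution) was then followed by fluorescence (335/495 nm) over 30 min.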

Where [1] appears, read: recombinant E. coli or Baculovirus full-length NS3 with NS4A-2.

T1 sequence (P27958 1027-1657): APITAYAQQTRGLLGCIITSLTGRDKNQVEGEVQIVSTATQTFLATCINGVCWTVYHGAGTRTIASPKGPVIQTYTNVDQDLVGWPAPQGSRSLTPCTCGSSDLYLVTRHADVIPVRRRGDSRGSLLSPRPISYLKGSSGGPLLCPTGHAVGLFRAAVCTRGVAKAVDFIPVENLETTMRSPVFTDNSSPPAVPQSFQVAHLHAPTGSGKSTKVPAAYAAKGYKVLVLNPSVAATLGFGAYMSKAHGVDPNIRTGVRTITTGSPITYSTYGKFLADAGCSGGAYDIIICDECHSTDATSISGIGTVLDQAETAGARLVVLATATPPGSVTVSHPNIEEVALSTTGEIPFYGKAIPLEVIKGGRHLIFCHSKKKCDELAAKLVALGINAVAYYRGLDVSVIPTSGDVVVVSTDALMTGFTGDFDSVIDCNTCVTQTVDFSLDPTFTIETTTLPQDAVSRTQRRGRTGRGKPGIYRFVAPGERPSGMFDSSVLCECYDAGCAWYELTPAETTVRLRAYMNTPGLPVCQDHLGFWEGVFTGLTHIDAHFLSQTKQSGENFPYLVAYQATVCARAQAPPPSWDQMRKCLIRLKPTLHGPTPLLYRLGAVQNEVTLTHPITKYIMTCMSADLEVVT

The IC50 is the concentration that inhibits the measured activity by half. Consider `CC(C)(C)OC(=O)N[C@H]1CCCCC/C=C\[C@@H]2C[C@@]2(C(=O)NS(=O)(=O)N2CCCC2)NC(=O)[C@@H]2CCCN2C1=O` [Compound 2207], for which the half-inhibitory concentration (IC50) under setting [1] was below 10 µM.

For the compound `CN1CCN(S(=O)(=O)NC(=O)[C@@]23C[C@H]2/C=C\CCCCC[C@H](NC(=O)OC(C)(C)C)C(=O)N2CCC[C@H]2C(=O)N3)CC1` [Compound 2208], the half-inhibitory concentration (IC50) under setting [1] was below 1 µM.

As for `CC(C)C(C(C)C)S(=O)(=O)NC(=O)[C@@]12C[C@H]1/C=C\CCCCC[C@H](NC(=O)OC(C)(C)C)C(=O)N1CCC[C@H]1C(=O)N2` [Compound 2209], the IC50 under setting [1] is below 1 µM.

On to `CC(C)(C)OC(=O)N[C@H]1CCCCC/C=C\[C@@H]2C[C@@]2(C(=O)NS(=O)(=O)N(CCC#N)C2CC2)NC(=O)[C@@H]2CCCN2C1=O` [Compound 2210], for which, under setting [1], the half-maximal inhibitory concentration (IC50) was below 1 µM.

As for `CN1CCC(N(C2CC2)S(=O)(=O)NC(=O)[C@@]23C[C@H]2/C=C\CCCCC[C@H](NC(=O)OC(C)(C)C)C(=O)N2CCC[C@H]2C(=O)N3)CC1` [Compound 2211], under setting [1], the IC50 is below 1 µM.

Consider `CC(C)(C)OC(=O)N[C@H]1CCCCC/C=C\[C@@H]2C[C@@]2(C(=O)NS(=O)(=O)NC2(C#N)CC2)NC(=O)[C@@H]2CCCN2C1=O` [Compound 2212], for which the IC50 under setting [1] is below 1 µM.

Turning to `CNS(=O)(=O)NC(=O)[C@@]12C[C@H]1/C=C\CCCCC[C@H](NC(=O)OC(C)(C)C)C(=O)N1CCC[C@H]1C(=O)N2` [Compound 2213], the half-maximal inhibitory concentration (IC50) under setting [1] is below 10 µM.

As for `CC(C)(C)OC(=O)N[C@H]1CCCCC/C=C\[C@@H]2C[C@@]2(C(=O)NS(=O)(=O)N2CCCCC2c2cccnc2)NC(=O)[C@@H]2CCCN2C1=O` (stereo partly drawn) [Compound 2222], the half-inhibitory concentration (IC50) under setting [1] is below 1 µM.

In the case of `CC1CCCC(C)N1S(=O)(=O)NC(=O)[C@@]12C[C@H]1/C=C\CCCCC[C@H](NC(=O)OC(C)(C)C)C(=O)N1CCC[C@H]1C(=O)N2` (stereo partly drawn) [Compound 2223], the IC50 under setting [1] is below 1 µM.

Regarding `CN(c1ccc(Cl)cc1)S(=O)(=O)NC(=O)[C@@]12C[C@H]1/C=C\CCCCC[C@H](NC(=O)OC(C)(C)C)C(=O)N1CCC[C@H]1C(=O)N2` [Compound 2226], under setting [1], the IC50 is below 10 µM.

Regarding `CN(c1ccccc1)S(=O)(=O)NC(=O)[C@@]12C[C@H]1/C=C\CCCCC[C@H](NC(=O)OC(C)(C)C)C(=O)N1CCC[C@H]1C(=O)N2` [Compound 2227], under setting [1], the IC50 is below 10 µM.

Regarding `CC(C)(C)OC(=O)N[C@H]1CCCCC/C=C\[C@@H]2C[C@@]2(C(=O)NS(=O)(=O)NCCc2ccccc2)NC(=O)[C@@H]2CCCN2C1=O` [Compound 2228], the IC50 under setting [1] was below 10 µM.

For the compound `CN(c1ccc(F)cc1)S(=O)(=O)NC(=O)[C@@]12C[C@H]1/C=C\CCCCC[C@H](NC(=O)OC(C)(C)C)C(=O)N1CCC[C@H]1C(=O)N2` [Compound 2229], the IC50 under setting [1] was below 10 µM.

In the case of `CN(Cc1ccc(Cl)cc1)S(=O)(=O)NC(=O)[C@@]12C[C@H]1/C=C\CCCCC[C@H](NC(=O)OC(C)(C)C)C(=O)N1CCC[C@H]1C(=O)N2` [Compound 2230], the IC50 under setting [1] is below 10 µM.

Regarding `CN(C)c1ccc(NS(=O)(=O)NC(=O)[C@@]23C[C@H]2/C=C\CCCCC[C@H](NC(=O)OC(C)(C)C)C(=O)N2CCC[C@H]2C(=O)N3)cc1` [Compound 2231], the IC50 under setting [1] is below 10 µM.

As to `CC(C)(C)OC(=O)N[C@H]1CCCCC/C=C\[C@@H]2C[C@@]2(C(=O)NS(=O)(=O)NCc2ccccc2)NC(=O)[C@@H]2CCCN2C1=O` [Compound 2232], the 50% inhibitory concentration (IC50) under setting [1] is below 10 µM.

On to `CC(C)(C)OC(=O)N[C@H]1CCCCC/C=C\[C@@H]2C[C@@]2(C(=O)NS(=O)(=O)Nc2ccccc2Cl)NC(=O)[C@@H]2CCCN2C1=O` [Compound 2233], for which the half-inhibitory concentration (IC50) under setting [1] was below 1 µM.

For the compound `CC(C)(C)OC(=O)N[C@H]1CCCCC/C=C\[C@@H]2C[C@@]2(C(=O)NS(=O)(=O)Nc2ccc(C(F)(F)F)cc2)NC(=O)[C@@H]2CCCN2C1=O` [Compound 2235], the IC50 under setting [1] was below 1 µM.

Consider `COc1ccccc1NS(=O)(=O)NC(=O)[C@@]12C[C@H]1/C=C\CCCCC[C@H](NC(=O)OC(C)(C)C)C(=O)N1CCC[C@H]1C(=O)N2` [Compound 2236], for which the IC50 under setting [1] was below 1 µM.

As to `CC(C)(C)OC(=O)N[C@H]1CCCCC/C=C\[C@@H]2C[C@@]2(C(=O)NS(=O)(=O)Nc2ccc(F)cc2)NC(=O)[C@@H]2CCCN2C1=O` [Compound 2237], the concentration for half-maximal inhibition (IC50) under setting [1] was below 1 µM.

Turning to `C=CCNS(=O)(=O)NC(=O)[C@@]12C[C@H]1/C=C\CCCCC[C@H](NC(=O)OC(C)(C)C)C(=O)N1CCC[C@H]1C(=O)N2` [Compound 2238], the IC50 under setting [1] is below 1 µM.

Take `CC(C)(C)OC(=O)N[C@H]1CCCCC/C=C\[C@@H]2C[C@@]2(C(=O)NS(=O)(=O)Nc2cccc(Cl)c2)NC(=O)[C@@H]2CCCN2C1=O` [Compound 2239]: the IC50 under setting [1] is below 1 µM.

Take `COc1cccc(NS(=O)(=O)NC(=O)[C@@]23C[C@H]2/C=C\CCCCC[C@H](NC(=O)OC(C)(C)C)C(=O)N2CCC[C@H]2C(=O)N3)c1` [Compound 2240]: the IC50 under setting [1] was below 1 µM.

As to `CC(C)(C)OC(=O)N[C@H]1CCCCC/C=C\[C@@H]2C[C@@]2(C(=O)NS(=O)(=O)Nc2ccc(C#N)cc2)NC(=O)[C@@H]2CCCN2C1=O` [Compound 2241], under setting [1], the concentration for half-maximal inhibition (IC50) was below 1 µM.

`Cc1ccc(NS(=O)(=O)NC(=O)[C@@]23C[C@H]2/C=C\CCCCC[C@H](NC(=O)OC(C)(C)C)C(=O)N2CCC[C@H]2C(=O)N3)cc1` [Compound 2243]: the half-maximal inhibitory concentration (IC50) under setting [1] is below 1 µM.

Take `CC1CCCN1S(=O)(=O)NC(=O)[C@@]12C[C@H]1/C=C\CCCCC[C@H](NC(=O)OC(C)(C)C)C(=O)N1CCC[C@H]1C(=O)N2` (stereo partly drawn) [Compound 2250]: under setting [1], the IC50 is below 10 µM.

`COC[C@H]1CCCN1S(=O)(=O)NC(=O)[C@@]12C[C@H]1/C=C\CCCCC[C@H](NC(=O)OC(C)(C)C)C(=O)N1CCC[C@H]1C(=O)N2` [Compound 2251]: under setting [1], the 50% inhibitory concentration (IC50) was below 0.1 µM.

Take `COC[C@@H]1CCCN1S(=O)(=O)NC(=O)[C@@]12C[C@H]1/C=C\CCCCC[C@H](NC(=O)OC(C)(C)C)C(=O)N1CCC[C@H]1C(=O)N2` [Compound 2252]: the IC50 under setting [1] is below 1 µM.

On to `CC(C)(C)OC(=O)N[C@H]1CCCCC/C=C\[C@@H]2C[C@@]2(C(=O)NCC2CC2)NC(=O)[C@@H]2CCCN2C1=O` [Compound 2302], for which the IC50 (Table 22) is below 10 µM.

`CC(C)(C)OC(=O)NC1CCCCCC=CC2CC2(C(=O)NCc2cccc(Cl)c2)NC(=O)C2CCCN2C1=O` (stereo not drawn) [Compound 2309]: the concentration for half-maximal inhibition (IC50) (Table 22) was below 1 µM.

In the case of `COc1ccccc1NC(=O)[C@@]12C[C@H]1/C=C\CCCCC[C@H](NC(=O)OC(C)(C)C)C(=O)N1CCC[C@H]1C(=O)N2` [Compound 2313], the concentration for half-maximal inhibition (IC50) (Table 22) was below 1 µM.

In the case of `CC(C)CNC(=O)[C@@]12C[C@H]1/C=C\CCCCC[C@H](NC(=O)OC(C)(C)C)C(=O)N1CCC[C@H]1C(=O)N2` [Compound 2314], where the note is “Table 22”, the 50% inhibitory concentration (IC50) is below 1 µM.

For `CC(C)(C)CNC(=O)[C@@]12C[C@H]1/C=C\CCCCC[C@H](NC(=O)OC(C)(C)C)C(=O)N1CCC[C@H]1C(=O)N2` [Compound 2315], under “Table 22”, the IC50 is below 1 µM.

Turning to `Cc1ccc(NC(=O)[C@@]23C[C@H]2/C=C\CCCCC[C@H](NC(=O)OC(C)(C)C)C(=O)N2CCC[C@H]2C(=O)N3)cc1` [Compound 2316], the concentration for half-maximal inhibition (IC50) (Table 22) is below 1 µM.

With `CC(C)(C)OC(=O)N[C@H]1CCCCC/C=C\[C@@H]2C[C@@]2(C(=O)Nc2cccc(Cl)c2)NC(=O)[C@@H]2CCCN2C1=O` [Compound 2317], the half-maximal inhibitory concentration (IC50) (Table 22) was below 1 µM.

With `CC(C)(C)OC(=O)N[C@H]1CCCCC/C=C\[C@@H]2C[C@@]2(C(=O)NC2CC2)NC(=O)[C@@H]2CCCN2C1=O` [Compound 2318], the IC50 (Table 22) was below 1 µM.

As to `CCCNC(=O)[C@@]12C[C@H]1/C=C\CCCCC[C@H](NC(=O)OC(C)(C)C)C(=O)N1CCC[C@H]1C(=O)N2` [Compound 2319], the IC50 (Table 22) was below 0.1 µM.

As to `CC(C)(C)OC(=O)N[C@H]1CCCCC/C=C\[C@@H]2C[C@@]2(C(=O)NCCc2ccccc2)NC(=O)[C@@H]2CCCN2C1=O` [Compound 2320], under “Table 22”, the IC50 is below 0.1 µM.

As for `COC(=O)c1cccc(CNC(=O)[C@@]23C[C@H]2/C=C\CCCCC[C@H](NC(=O)OC(C)(C)C)C(=O)N2CCC[C@H]2C(=O)N3)c1` [Compound 2321], where the note is “Table 22”, the IC50 was below 1 µM.

Take `CC(C)(C)OC(=O)N[C@H]1CCCCC/C=C\[C@@H]2C[C@@]2(C(=O)NCC#N)NC(=O)[C@@H]2CCCN2C1=O` [Compound 2322]: under “Table 22”, the IC50 is below 0.1 µM.

Consider `CC(C)(C)OC(=O)N[C@H]1CCCCC/C=C\[C@@H]2C[C@@]2(C(=O)N[S@@+]([O-])C(C)(C)C)NC(=O)[C@@H]2CCCN2C1=O` [Compound 2401, (1S,4R,6S,14S)tert-Butyl 4-((S)-2-methylpropane-2-sulfinyl)-aminocarbonyl-2,15-dioxo-3,16-diaza-tricyclo[14.3.0.0^4,6]nonadec-7-ene-14-yl carbamate], for which the IC50 under setting [1] was below 0.1 µM.

With `Cc1ccc([S@+]([O-])NC(=O)[C@@]23C[C@H]2/C=C\CCCCC[C@H](NC(=O)OC(C)(C)C)C(=O)N2CCC[C@H]2C(=O)N3)cc1` [Compound 2402], under setting [1], the IC50 is below 0.1 µM.

With `Cc1ccc([S@@+]([O-])NC(=O)[C@@]23C[C@H]2/C=C\CCCCC[C@H](NC(=O)OC(C)(C)C)C(=O)N2CCC[C@H]2C(=O)N3)cc1` [Compound 2403], the concentration for half-maximal inhibition (IC50) under setting [1] is below 1 µM.

Regarding `CC(C)(C)OC(=O)N[C@H]1CCCCC/C=C\[C@@H]2C[C@@]2(C(=O)N[S@+]([O-])C(C)(C)C)NC(=O)[C@@H]2CCCN2C1=O` [Compound 2404], under setting [1], the IC50 was below 1 µM.

For `CC(C)(C)OC(=O)N[C@H]1CCCCC/C=C\[C@@H]2C[C@@]2(C(=O)NCC2CC2)NC(=O)[C@@H]2C[C@@H](OC(=O)N3Cc4ccccc4C3)CN2C1=O` [Compound 2501, (1S,4R,6S,14S,18R)-1,3-Dihydro-isoindole-2-carbonyloxylic acid 14-tert-butoxycarbonylamino-4-cyclopropylmethanaminocarbonyl-2,15-dioxo-3,16-diaza-tricyclo[14.3.0.0^4,6]nonadec-7-ene-18-yl ester], for the setting “Table 24”, the IC50 is above 10 µM.
